From US20240208992A1, “MACROCYCLES AS CFTR MODULATORS” (Idorsia Pharmaceuticals Ltd, priority 2021, published 2024)

Target: human F508del-CFTR (Homo sapiens, UniProt P13569, DEL508-508)
Experiment: F508del-CFTR cell surface expression (corrector activity), DiscoveRx ß-galactosidase complementation chemiluminescence assay in recombinant U2OS cell line;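 also: U2OS cells co-expressing ProLink-tagged F508del-CFTR and a membrane-anchored enzyme acceptor, where more surface CFTR restores β-galactosidase activity measured by chemiluminescence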
Conditions: for EC50: EC50, F508del-CFTR cell surface expression, U2OS cells, 16h compound incubation, geomean values; for Emax: U2OS, in relation to Emax of corrector lumacaftor (=100%), arithmetic mean values

Sequence of human F508del-CFTR (P13569 with tags, fused parts or gaps DEL508-508): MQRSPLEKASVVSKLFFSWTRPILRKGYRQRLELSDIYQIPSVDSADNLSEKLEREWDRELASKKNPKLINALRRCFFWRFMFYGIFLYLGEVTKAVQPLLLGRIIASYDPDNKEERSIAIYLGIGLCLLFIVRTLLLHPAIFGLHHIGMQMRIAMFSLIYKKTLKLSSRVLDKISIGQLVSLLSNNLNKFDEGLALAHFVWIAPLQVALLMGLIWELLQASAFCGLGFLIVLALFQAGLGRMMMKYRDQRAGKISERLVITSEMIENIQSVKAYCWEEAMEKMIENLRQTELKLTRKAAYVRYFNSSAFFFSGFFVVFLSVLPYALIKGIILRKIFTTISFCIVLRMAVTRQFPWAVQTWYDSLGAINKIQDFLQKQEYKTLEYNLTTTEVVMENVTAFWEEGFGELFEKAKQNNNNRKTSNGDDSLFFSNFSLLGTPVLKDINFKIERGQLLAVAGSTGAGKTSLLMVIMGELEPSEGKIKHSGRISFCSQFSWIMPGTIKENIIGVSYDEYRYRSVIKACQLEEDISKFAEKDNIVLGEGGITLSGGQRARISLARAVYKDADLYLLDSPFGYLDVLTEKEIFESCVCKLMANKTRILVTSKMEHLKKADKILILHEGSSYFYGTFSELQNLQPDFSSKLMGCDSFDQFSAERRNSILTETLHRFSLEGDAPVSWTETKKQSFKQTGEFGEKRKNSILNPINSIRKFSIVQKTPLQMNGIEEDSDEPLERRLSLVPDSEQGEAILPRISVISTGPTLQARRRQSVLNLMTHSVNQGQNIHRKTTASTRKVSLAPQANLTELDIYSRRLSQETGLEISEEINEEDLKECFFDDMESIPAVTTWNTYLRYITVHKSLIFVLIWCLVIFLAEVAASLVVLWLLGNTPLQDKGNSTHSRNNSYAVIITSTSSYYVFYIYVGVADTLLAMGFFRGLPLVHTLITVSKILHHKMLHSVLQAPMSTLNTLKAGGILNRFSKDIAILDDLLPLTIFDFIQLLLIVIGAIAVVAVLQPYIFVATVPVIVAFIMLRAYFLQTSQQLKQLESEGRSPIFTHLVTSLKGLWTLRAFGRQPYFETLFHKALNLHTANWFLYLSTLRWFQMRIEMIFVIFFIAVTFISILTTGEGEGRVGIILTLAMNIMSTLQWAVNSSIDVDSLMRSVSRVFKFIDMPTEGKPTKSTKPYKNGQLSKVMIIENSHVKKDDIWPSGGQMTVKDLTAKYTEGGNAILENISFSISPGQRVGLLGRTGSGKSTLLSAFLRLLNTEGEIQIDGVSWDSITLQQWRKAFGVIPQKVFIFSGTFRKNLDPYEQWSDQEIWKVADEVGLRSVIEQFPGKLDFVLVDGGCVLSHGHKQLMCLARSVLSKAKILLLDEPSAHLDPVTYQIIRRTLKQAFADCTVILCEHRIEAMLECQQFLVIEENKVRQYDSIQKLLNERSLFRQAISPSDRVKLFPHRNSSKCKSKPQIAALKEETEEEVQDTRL

Row | Compound | EC50 [nM] | Emax [%]
1 | COc1cccc(CCNC(=O)[C@@H]2CC(=O)N(C)[C@@H](CC(C)C)C(=O)N(C)C3(CC3)C(=O)N[C@H](Cc3ccccc3)COc3ncc4ccccc4c3C(=O)N2)c1 [Example 555, (3′S,7′S,13′R)-13′-benzyl-7′-isobutyl-N-(3-methoxyphenethyl)-6′,9′-dimethyl-1′,5′,8′,11′-tetraoxo-2′,3′,4′,5′,6′,7′,8′,9′,11′,12′,13′,14′-dodecahydro-1′H-spiro[cyclopropane-1,10′-[1]oxa[4,7,10,14]tetraazacycloheptadecino[17,16-c]isoquinoline]-3′-carboxamide] | 219 | 309
2 | CC(C)C[C@H]1C(=O)N(C)C2(CC2)C(=O)N[C@H](Cc2ccccc2)COc2ncc3ccccc3c2C(=O)N[C@H](C(=O)NCCc2cc(C3CC3)no2)CC(=O)N1C [Example 556, (3′S,7′S,13′R)-13′-benzyl-N-(2-(3-cyclopropylisoxazol-5-yl)ethyl)-7′-isobutyl-6′,9′-dimethyl-1′,5′,8′,11′-tetraoxo-2′,3′,4′,5′,6′,7′,8′,9′,11′,12′,13′,14′-dodecahydro-1′H-spiro[cyclopropane-1,10′-[1]oxa[4,7,10,14]tetraazacycloheptadecino[17,16-c]isoquinoline]-3′-carboxamide] | 327 | 322
3 | COc1nccc2c1C(=O)N[C@H](C(=O)NCCc1noc(C3CC3)n1)CC(=O)N(C)[C@@H](CC(C)C)C(=O)N(C)[C@@H](CC1CCC(F)(F)CC1)C(=O)N[C@H](Cc1ccccc1)CO2 [Example 557, (3R,6S,9S,13S)-3-benzyl-N-(2-(5-cyclopropyl-1,2,4-oxadiazol-3-yl)ethyl)-6-((4,4-difluorocyclohexyl)methyl)-9-isobutyl-16-methoxy-7,10-dimethyl-5,8,11,15-tetraoxo-2,3,4,5,6,7,8,9,10,11,12,13,14,15-tetradecahydropyrido[3,4-p][1]oxa[4,7,10,14]tetraazacycloheptadecine-13-carboxamide] | 594 | 253
4 | COc1nccc2c1C(=O)N[C@H](C(=O)NCCc1noc(C3CC3)n1)CC(=O)N(C)[C@@H](CC(C)C)C(=O)N(C)[C@H](CC1CCC(F)(F)CC1)C(=O)N[C@H](Cc1ccccc1)CO2 [Example 558, (3R,6R,9S,13S)-3-benzyl-N-(2-(5-cyclopropyl-1,2,4-oxadiazol-3-yl)ethyl)-6-((4,4-difluorocyclohexyl)methyl)-9-isobutyl-16-methoxy-7,10-dimethyl-5,8,11,15-tetraoxo-2,3,4,5,6,7,8,9,10,11,12,13,14,15-tetradecahydropyrido[3,4-p][1]oxa[4,7,10,14]tetraazacycloheptadecine-13-carboxamide] | 167 | 355
5 | CC(C)C[C@H]1C(=O)N2CCCC[C@@H]2C(=O)N[C@H](Cc2ccccc2)COc2cnc3ccccc3c2C(=O)N[C@H](C(=O)NCCc2cc(C(F)(F)F)no2)CC(=O)N1C [Example 559, (9S,13S,19aR,22R)-22-benzyl-13-isobutyl-12-methyl-7,11,14,20-tetraoxo-N-(2-(3-(trifluoromethyl)isoxazol-5-yl)ethyl)-7,8,9,10,11,12,13,14,17,18,19,19a,20,21,22,23-hexadecahydro-16H-pyrido[2′,1′:6,7][1]oxa[4,7,10,14]tetraazacycloheptadecino[17,16-c]quinoline-9-carboxamide] | 155 | 236
6 | Cc1cc2ccc3c(c2o1)C(=O)N[C@H](C(=O)NCCc1noc(C2CC2)n1)CC(=O)N(C)[C@@H](CC(C)C)C(=O)N(C)CC(=O)N[C@H](Cc1ccccc1)CO3 [Example 561, (8R,14S,18S)-8-benzyl-N-(2-(5-cyclopropyl-1,2,4-oxadiazol-3-yl)ethyl)-14-isobutyl-2,12,15-trimethyl-10,13,16,20-tetraoxo-7,8,9,10,11,12,13,14,15,16,17,18,19,20-tetradecahydrobenzofuro[7,6-p][1]oxa[4,7,10,14]tetraazacycloheptadecine-18-carboxamide] | 437 | 215
7 | CC(C)C[C@H]1C(=O)N2CCCC[C@@H]2C(=O)N[C@H](Cc2ccccc2)COc2cnc3cccc(F)c3c2C(=O)N[C@H](C(=O)NCCc2noc(C3CC3)n2)CC(=O)N1C [Example 563, (9S,13S,19aR,22R)-22-benzyl-N-(2-(5-cyclopropyl-1,2,4-oxadiazol-3-yl)ethyl)-6-fluoro-13-isobutyl-12-methyl-7,11,14,20-tetraoxo-7,8,9,10,11,12,13,14,17,18,19,19a,20,21,22,23-hexadecahydro-16H-pyrido[2′,11:6,7][1]oxa[4,7,10,14]tetraazacycloheptadecino[17,16-c]quinoline-9-carboxamide] | 125 | 330
8 | COc1nc(C)cc2c1C(=O)N[C@H](C(=O)NCCc1noc(C3CC3)n1)CC(=O)N(C)[C@@H](CC(C)C)C(=O)N1CCCC[C@@H]1C(=O)N[C@H](Cc1ccccc1)CO2 [Example 567, (7S,11S,17aR,20R)-20-benzyl-N-(2-(5-cyclopropyl-1,2,4-oxadiazol-3-yl)ethyl)-11-isobutyl-4-methoxy-2,10-dimethyl-5,9,12,18-tetraoxo-5,6,7,8,9,10,11,12,15,16,17,17a,18,19,20,21-hexadecahydro-14H-dipyrido[2,1-f:3′,4′-p][1]oxa[4,7,10,14]tetraazacycloheptadecine-7-carboxamide] | 384 | 307

Second part, the molecule after the results:

Row | EC50 [nM] | Emax [%] | Compound
9 | 114 | 249 | CC(C)C[C@H]1C(=O)N2CCCC[C@@H]2C(=O)N[C@H](Cc2ccccc2)COc2cnc3ccc(F)cc3c2C(=O)N[C@H](C(=O)NCCc2cc(C(F)(F)F)no2)CC(=O)N1C [Example 560, (9S,13S,19aR,22R)-22-benzyl-5-fluoro-13-isobutyl-12-methyl-7,11,14,20-tetraoxo-N-(2-(3-(trifluoromethyl)isoxazol-5-yl)ethyl)-7,8,9,10,11,12,13,14,17,18,19,19a,20,21,22,23-hexadecahydro-16H-pyrido[2′,1′:6,7][1]oxa[4,7,10,14]tetraazacycloheptadecino[17,16-c]quinoline-9-carboxamide]
10 | 444 | 282 | Cc1cc2ccc3c(c2o1)C(=O)N[C@H](C(=O)NCCc1nc(C2CC2)no1)CC(=O)N(C)[C@@H](CC(C)C)C(=O)N(C)CC(=O)N[C@H](Cc1ccccc1)CO3 [Example 562, (8R,14S,18S)-8-benzyl-N-(2-(3-cyclopropyl-1,2,4-oxadiazol-5-yl)ethyl)-14-isobutyl-2,12,15-trimethyl-10,13,16,20-tetraoxo-7,8,9,10,11,12,13,14,15,16,17,18,19,20-tetradecahydrobenzofuro[7,6-p][1]oxa[4,7,10,14]tetraazacycloheptadecine-18-carboxamide]
11 | 49 | 298 | Cc1cc(CCNC(=O)[C@@H]2CC(=O)N(C)[C@@H](CC(C)C)C(=O)N(C)[C@H](COCc3ccccc3)C(=O)N[C@H](Cc3ccccc3)COc3cnc4ccccc4c3C(=O)N2)on1 [Example 564, (3S,7S,10R,13R)-13-benzyl-10-((benzyloxy)methyl)-7-isobutyl-6,9-dimethyl-N-(2-(3-methylisoxazol-5-yl)ethyl)-1,5,8,11-tetraoxo-1,2,3,4,5,6,7,8,9,10,11,12,13,14-tetradecahydro-[1]oxa[4,7,10,14]tetraazacycloheptadecino[17,16-c]quinoline-3-carboxamide]
12 | 338 | 254 | COc1nc(C)cc2c1C(=O)N[C@H](C(=O)NCCc1cc(C3CC3)on1)CC(=O)N(C)[C@@H](CC(C)C)C(=O)N1CCCC[C@@H]1C(=O)N[C@H](Cc1ccccc1)CO2 [Example 565, (7S,11S,17aR,20R)-20-benzyl-N-(2-(5-cyclopropylisoxazol-3-yl)ethyl)-11-isobutyl-4-methoxy-2,10-dimethyl-5,9,12,18-tetraoxo-5,6,7,8,9,10,11,12,15,16,17,17a,18,19,20,21-hexadecahydro-14H-dipyrido[2,1-f:3′,4′-p][1]oxa[4,7,10,14]tetraazacycloheptadecine-7-carboxamide]
13 | 703 | 278 | COCC[C@@H]1C(=O)N[C@H](Cc2ccccc2)COc2cnc3ccccc3c2C(=O)N[C@H](C(=O)NCCc2cc(C)no2)CC(=O)N(C)[C@@H](CC(C)C)C(=O)N1C [Example 566, (3S,7S,10R,13R)-13-benzyl-7-isobutyl-10-(2-methoxyethyl)-6,9-dimethyl-N-(2-(3-methylisoxazol-5-yl)ethyl)-1,5,8,11-tetraoxo-1,2,3,4,5,6,7,8,9,10,11,12,13,14-tetradecahydro-[1]oxa[4,7,10,14]tetraazacycloheptadecino[17,16-c]quinoline-3-carboxamide]
14 | 391 | 238 | COc1nc(C)cc2c1C(=O)N[C@H](C(=O)NCCc1cc(C(F)(F)F)no1)CC(=O)N(C)[C@@H](CC(C)C)C(=O)N1CCCC[C@@H]1C(=O)N[C@H](Cc1ccccc1)CO2 [Example 568, (7S,11S,17aR,20R)-20-benzyl-11-isobutyl-4-methoxy-2,10-dimethyl-5,9,12,18-tetraoxo-N-(2-(3-(trifluoromethyl)isoxazol-5-yl)ethyl)-5,6,7,8,9,10,11,12,15,16,17,17a,18,19,20,21-hexadecahydro-14H-dipyrido[2,1-f:3′,4′-p][1]oxa[4,7,10,14]tetraazacycloheptadecine-7-carboxamide]
15 | 374 | 323 | COc1nccc2c1C(=O)N[C@H](C(=O)NCCc1cc(C)no1)CC(=O)N(C)[C@@H](CC(C)C)C(=O)N1CCN(CC(C)C)C[C@@H]1C(=O)N[C@H](Cc1ccccc1)CO2 [Example 570, (7S,11S,20R,22aR)-20-benzyl-2,7-diisobutyl-14-methoxy-8-methyl-N-(2-(3-methylisoxazol-5-yl)ethyl)-6,9,13,22-tetraoxo-1,3,4,6,7,8,9,10,11,12,13,19,20,21,22,22a-hexadecahydro-2H-pyrazino[2,1-f]pyrido[3,4-p][1]oxa[4,7,10,14]tetraazacycloheptadecine-11-carboxamide]
